From patent US20240124454A1, “TRICYCLIC COMPOUND AND USE THEREOF” (NANJING ZAIMING PHARMACEUTICAL CO., LTD., priority 2020, published 2024)
Where two headings read alike, the source gives them in different places.

How the values were obtained:
[1] = system: HCT116 MTAP^−/− cells; experiment: Determination of intracellular SAM level by LC-MS/MS; type: cell-based; conditions: Homo sapiens, HCT-116, 6 h, read-out: SAM production inhibitory activity IC50
Protocol: Test Example 2. Determination of Intracellular SAM Level
The brief introduction of the test principle: After the test MAT2A inhibitor was incubated with cancer cells for a period of time, the cells were lysed with a stop reagent to quench the activity of the MAT2A enzyme. The catalytic product SAM of MAT2A in the cell lysate was quantitatively determined by LC-MS/MS, and thus the activity of MAT2A in the cell was reflected.
(§1) Reference: The experiment referred to the method disclosed in patent WO2018045071.
Material and cell: HCT116 MTAP^−/− cells were purchased from KYinno; fetal bovine serum, McCoy's 5a culture medium, and penicillin-streptomycin were purchased from Gibco Company (U.S.), and 96-well plates were purchased from Corning Company (U.S.).
Cell culture: HCT116 MTAP^−/− cells were cultured with a McCoy's 5a medium containing 10% fetal bovine serum+1% penicillin-streptomycin at 37° C. with 5% CO2. Cells at logarithmic growth phase were available for the experiment.
LC-MS/MS detection: The effect of the compound on the SAM production level in HCT116 MTAP^−/− cell strains was detected by LC-MS/MS. The cells were adjusted to a concentration of 50000 cells per well, seeded on a 96-well plate, and incubated overnight at 37° C. with 5% CO2. In the experimental group, the test compound was dissolved in DMSO, diluted sequentially with DMSO and a culture medium, and transferred to a cell plate at a final concentration of 10 μM, 3-fold dilution. The cells were continuously cultured at 37° C. with 5% CO2 for 6 h. The supernatant was pipetted off. After the cells were washed once with PBS, glacial acetic acid was added to lyse the cells. After the lysate was processed, the SAM concentration was determined by LC-MS/MS analysis.
A negative control group and a positive control group were respectively used as Bottom and Top. The negative control group was added with 10 μM positive compound (compound 072 of Example 51 of patent WO2021139775A1) in the same volume, and other operations were consistent with those of the experimental group. The positive control group was not added with the test compound, only added with DMSO in the same volume, and other operations were consistent with those of the experimental group.
(§2) The % Compound inhibition was calculated and fitted to give the IC50 of the compound.
% Compound inhibition=1−100%×(Signal−Bottom)/(Top−Bottom)
(§3) Signal referred to the signal value of the experimental group, Bottom referred to the average signal value of the negative control group, and Top referred to the average signal value of the positive control group.

[2] = system: HCT116 WT cells; experiment: Cell proliferation inhibition test (Cell-Titer Glo), HCT116 WT; type: cell-based, human; conditions: Homo sapiens, HCT-116, 144 h, 6 days, read-out: HCT116 WT Antiproliferative activity IC50
Protocol: (§4) Test Example 3. Cell Proliferation Inhibition Test of Human Colon Cancer HCT116 WT Cells and HCT116 MTAP-1-Cells
(§5) The brief introduction of the test principle: After the test MAT2A inhibitor was incubated with cancer cells for a period of time, the effect of the test compound on cell proliferation was measured using a cell proliferation count method based on the ATP content.
as §1
(§6) Material and cell: HCT116 WT cells and HCT116 MTAP^−/− cells were purchased from KYinno; fetal bovine serum, McCoy's 5a culture medium, and penicillin-streptomycin were purchased from Gibco Company (U.S.), 96-well plates were purchased from Corning Company (U.S.), and the Cell-Titer Glo reagent was purchased from Promega Company (U.S.).
(§7) Cell culture: HCT116 WT cells and HCT116 MTAP^−/− cells were cultured with a McCoy's 5a medium containing 10% fetal bovine serum+1% penicillin-streptomycin at 37° C. with 5% CO2.
(§8) Cells at logarithmic growth phase were available for the experiment.
(§9) Cell proliferation activity test: The Cell-Titer Glo reagent was used to test the compound for inhibitory activity on proliferation of both HCT116 WT and HCT116 MTAP^−/− cell strains. The cells were adjusted to a concentration of 400 cells per well, seeded on a 96-well plate, and incubated overnight at 37° C. with 5% CO2.
(§10) In the experimental group, the test compound was diluted sequentially with DMSO and a culture medium, and transferred to a cell plate at a final concentration of 10 μM, 3-fold dilution. The cells were continuously cultured at 37° C. with 5% CO2 for 6 days. The Cell-Titer Glo reagent was added and the cell activity was measured.
(§11) A negative control group and a positive control group were respectively used as Bottom and Top. The negative control group was not added with cells, only added with the culture medium in the same volume, and other operations were consistent with those of the experimental group. The positive control group was not added with the test compound, only added with DMSO in the same volume, and other operations were consistent with those of the experimental group.
as §2
(§12) % Compound inhibition=1-100%×(Signal−Bottom)/(Top−Bottom).
as §3
(§13) HCT116 MTAP^−/− cells are cells not expressing MTAP protein obtained by site-directed knockout of wild type HCT116 (HCT116 WT) cells by gene knockout. Synthetic lethality will occur due to MAT2A inhibition and the deletion of MTAP, thereby causing tumor cell death. The activity and selectivity of the MAT2A inhibitor can be evaluated by testing the antiproliferative activity of the MAT2A inhibitor on human colon cancer HCT116 MTAP^−/− cells and human colon cancer HCT116 WT.

[3] = molecular target: MAT2A (Homo sapiens (Human), UniProt P31153); experiment: MAT2A biochemical test (inorganic phosphate colorimetric, PiColorLock); conditions: read-out: MAT2A inhibitory Activity IC50
MAT2A, sequence (P31153 whole entry): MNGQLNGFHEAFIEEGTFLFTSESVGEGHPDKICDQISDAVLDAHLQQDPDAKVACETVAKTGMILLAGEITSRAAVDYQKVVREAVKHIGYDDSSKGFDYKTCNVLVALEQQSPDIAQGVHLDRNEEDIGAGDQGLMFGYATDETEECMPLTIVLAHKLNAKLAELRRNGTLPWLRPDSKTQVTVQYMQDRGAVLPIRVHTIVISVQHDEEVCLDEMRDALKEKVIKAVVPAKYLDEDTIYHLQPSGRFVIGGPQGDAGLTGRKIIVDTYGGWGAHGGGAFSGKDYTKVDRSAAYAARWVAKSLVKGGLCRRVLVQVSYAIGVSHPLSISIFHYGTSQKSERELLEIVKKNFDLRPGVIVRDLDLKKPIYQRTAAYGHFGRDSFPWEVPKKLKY
In short: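 Compounds tested from 10 μM top concentration in 3-fold dilutions, preincubated 120 min at room temperature with MAT2A ([…] final) in Tris/KCl/MgCl2/EDTA/BSA buffer. Reaction started with […] L-methionine and 400 μM ATP, run 90 min at room temperature; phosphate read by PiColorLock after 30 min. IC50 fitted from % inhibition versus no-enzyme and DMSO controls.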

[4] = system: HCT116 MTAP^−/− cells; experiment: Cell proliferation inhibition test (Cell-Titer Glo), HCT116 MTAP−/−; type: cell-based, human; conditions: Homo sapiens, HCT-116, 144 h, 6 days, read-out: HCT116 MTAP−/− Antiproliferative activity IC50
Protocol: as §4, §5, §1, §6, §7, §8, §9, §10, §11, §2, §12, §3, §13

| Structure (SMILES) | IC50 [1] [nM] | IC50 [2] [nM] | IC50 ([3]; class symbols) [nM] | IC50 ([3]; numeric values) [nM] | IC50 [4] [nM] |
| --- | --- | --- | --- | --- | --- |
| O=c1c2ncoc2c2ccc(C(F)(F)F)nc2n1-c1cccc(F)c1Cl [Compound 35, 5-(2-chloro-3-fluorophenyl)-7-(trifluoromethyl)oxazolo[4,5-c][1,8]naphthyridin-4(5H)-one] | – | 1210 | < 100 | 49 | 238 |
| Cc1cccc(-n2c(=O)c3ncn(C)c3c3ccc(C(F)(F)F)nc32)c1Cl [Compound 36, 5-(2-chloro-3-methylphenyl)-1-methyl-7-(trifluoromethyl)-1,5-dihydro-4H-imidazo[4,5-c][1,8]naphthyridin-4-one] | 5.6 | 9970 | < 100 | 52.6 | 81.5 |
| Cn1cnc2c(=O)n(-c3cccc(Cl)c3Cl)c3nc(C(F)(F)F)ccc3c21 [Compound 37, 5-(2,3-dichlorophenyl)-1-methyl-7-(trifluoromethyl)-1,5-dihydro-4H-imidazo[4,5-c][1,8]naphthyridin-4-one] | 8.8 | 9060 | < 100 | 48.3 | 169 |
| Cc1ccc2c3c(ncn3C)c(=O)n(-c3cccc(F)c3Cl)c2n1 [Compound 38, 5-(2-chloro-3-fluorophenyl)-1,7-dimethyl-1,5-dihydro-4H-imidazo[4,5-c][1,8]naphthyridin-4-one] | – | 605 | < 100 | 82 | 130 |
| [2H]C([2H])([2H])n1cnc2c(=O)n(-c3cccc(F)c3Cl)c3nc(C(F)(F)F)ccc3c21 [Compound 44, 5-(2-chloro-3-fluorophenyl)-1-(methyl-d3)-7-(trifluoromethyl)-1,5-dihydro-4H-imidazo[4,5-c][1,8]naphthyridin-4-one] | – | 667 | < 100 | 49.5 | 71.5 |
| Cn1cnc2c(=O)n(-c3cccnc3)c3nc(C(F)(F)F)ccc3c21 [Compound 64, 1-methyl-5-(pyridin-3-yl)-7-(trifluoromethyl)-1,5-dihydro-4H-imidazo[4,5-c][1,8]naphthyridin-4-one] | – | 1050 | < 100 | – | 398 |
| Cn1cnc2c(=O)n(-c3cccc(F)c3Cl)c3nc(C(F)(F)F)ncc3c21 [Compound 65, 5-(2-chloro-3-fluorophenyl)-1-methyl-7-(trifluoromethyl)-1,5-dihydro-4H-imidazo[4′,5′:4,5]pyrido[2,3-d]pyrimidin-4-one] | – | 859 | < 100 | 78.3 | 188 |
| [2H]C([2H])([2H])n1cnc2c(=O)n(-c3cccnc3C)c3nc(C(F)(F)F)ccc3c21 [Compound 72, 1-(methyl-d3)-5-(2-methylpyridin-3-yl)-7-(trifluoromethyl)-1,5-dihydro-4H-imidazo[4,5-c][1,8]naphthyridin-4-one] | – | 970 | < 100 | 52.1 | 191 |

The remaining lines, values ahead:

| IC50 [1] [nM] | IC50 [2] [nM] | IC50 ([3]; class symbols) [nM] | IC50 ([3]; numeric values) [nM] | IC50 [4] [nM] | Structure (SMILES) |
| --- | --- | --- | --- | --- | --- |
| 1.6 | 237 | < 100 | 20.5 | 33 | Cc1ncccc1-n1c(=O)c2ncn(C)c2c2ccc(C(F)(F)F)nc21 (single isomer, unassigned) [Compound 20-P1, 1-methyl-5-(2-methylpyridin-3-yl)-7-(trifluoromethyl)-1,5-dihydro-4H-imidazo[4,5-c][1,8]naphthyridin-4-one] |
| 3.8 | 816 | < 100 | 31.9 | 115 | O=c1c2nc[nH]c2c2ccc(C(F)(F)F)nc2n1-c1ccccc1Cl [Compound 1, 5-(2-chlorophenyl)-7-(trifluoromethyl)-1,5-dihydro-4H-imidazo[4,5-c][1,8]naphthyridin-4-one] |
| 7.4 | 4770 | < 100 | 69.3 | 529 | Cn1cnc2c(=O)n(-c3ccccc3Cl)c3nc(C(F)(F)F)ccc3c21 [Compound 2, 5-(2-chlorophenyl)-1-methyl-7-(trifluoromethyl)-1,5-dihydro-4H-imidazo[4,5-c][1,8]naphthyridin-4-one] |
| – | 4180 | < 100 | 29.6 | 426 | O=c1c2nc(C(F)(F)F)[nH]c2c2ccc(C(F)(F)F)nc2n1-c1ccccc1Cl [Compound 9, 5-(2-chlorophenyl)-2,7-bis(trifluoromethyl)-1,5-dihydro-4H-imidazo[4,5-c][1,8]naphthyridin-4-one] |
| – | > 10000 | < 100 | 53.5 | 394 | COc1ncccc1-n1c(=O)c2ncn(C)c2c2ccc(C(F)(F)F)nc21 [Compound 68, 5-(2-methoxypyridin-3-yl)-1-methyl-7-(trifluoromethyl)-1,5-dihydro-4H-imidazo[4,5-c][1,8]naphthyridin-4-one] |
